Source: patent publication US7569729B2, “Stable atomoxetine hydrochloride, a process for the preparation thereof, and an analytical control of its stability” (Teva Pharmaceutical Fine Chemicals S.R.L., priority 2005, dated 2009)
“And” between values parts separate entries of the source, which are not always exact repeats. Equal values may be shown once. Where a name gives a salt, the structure may show the parent alone.

Assays:
[1] = Determination of pH of Atomoxetine Hydrochloride samples in aqueous solution; format: physicochemical; conditions: for aqueous pH test results: samples of the 40° C. stability test; for aqueous pH test results / pH of 2% (w/V) aqueous solution: Hydrochloride; for pH (2% in H2O): wet samples after filtration from crystallization medium
Procedure: The present invention provides a method for analyzing Atomoxetine Hydrochloride stability, comprising determining the pH of a sample of Atomoxetine Hydrochloride in aqueous solution. The process comprises dissolving Atomoxetine Hydrochloride in water at a temperature of about 20° C. to about 30° C. to obtain a solution and measuring the pH. Preferably, the dissolution of Atomoxetine Hydrochloride is accelerated by using a sonication. Preferably, the pH is measured with a glass electrode.
A 2 g sample of Atomoxetine Hydrochloride is dissolved in 100 ml of deionized water at temperature between about 20° C. and about 30° C. with sonication if required to obtain a complete solution. The pH is measured with a glass electrode at temperature of between about 20° C. and about 30° C.

[2] = Stability test (40° C., five days), impurities by HPLC; format: physicochemical
Procedure: At lower temperatures, e.g., 40° C., the stability of Atomoxetine Hydrochloride samples, having a water solution pH test of less than 4 are compromised, while Atomoxetine Hydrochloride samples, having a water solution pH test of greater than 4, are stable.

[3] = Stressed thermal stability test (70° C. for 58 hours), impurities by HPLC; format: physicochemical
Source text: However, the presence of free HCl in Atomoxetine Hydrochloride, which is easily detected by a pH test of a solution of Atomoxetine Hydrochloride in water, results in significant degradation of the Atomoxetine Hydrochloride, as described below.

[4] = Drying wet Atomoxetine Hydrochloride in a vacuum oven at 70° C., impurities by HPLC; format: physicochemical; conditions: HPLC results, weight percent
Source text: These experimental results are in agreement with the previously described stability data.

[5] = Stability test (40° C., 75% RH), impurities by HPLC; format: physicochemical
[6] = Determination of pH of Atomoxetine Hydrochloride samples in aqueous solution; format: physicochemical; conditions: Example 2, after first water slurry and wash, 200 mg in 10 ml water
[7] = Contact of dry Atomoxetine Hydrochloride with HCl gas flow at room temperature, impurities by HPLC
[8] = End of test time, Hydrochloride
[9] = After drying in vacuum oven at 70° C.
[10] = Before contact with HCl gas flow
[11] = After contact with HCl gas flow, room temperature

Compound | aqueous pH test results [1] | Impurity (a) (HPLC A %) [2, 8] | Impurity (b) (HPLC A %) [2, 8] | Impurity (c) (HPLC A %) [2, 8] | Impurity (b) (HPLC A %) ([2]; Time zero) | Impurity (a) (HPLC A %) ([2]; Time zero, Hydrochloride) | Impurity (c) (HPLC A %) ([2]; Time zero, Hydrochloride) | pH of 2% (w/V) aqueous solution [1] | Impurity (a) (HPLC A %) [3, 8] | Impurity (b) (HPLC A %) [3, 8] | Impurity (c) (HPLC A %) [3, 8] | Impurity (a) (HPLC A %) ([3]; Time zero) | Impurity (b) (HPLC A %) ([3]; Time zero) | Impurity (c) (HPLC A %) ([3]; Time zero) | also measured
CNCCC(Oc1ccccc1C)c1ccccc1 (stereo not shown) [Sample 9, Atomoxetine Hydrochloride] | 4.8 | not detected | not detected | not detected | not detected | not detected | not detected | – | – | – | – | – | – | – | –
CNCCC(Oc1ccccc1C)c1ccccc1 (single isomer, unassigned) [Sample 1, Atomoxetine Hydrochloride] | – | – | – | – | – | – | – | 2.4 | 10.5% HPLC A % | 14.2% HPLC A % | 26.2% HPLC A % | not detected | not detected | not detected | –
CNCCC(Oc1ccccc1C)c1ccccc1 (stereo not shown) [Sample 8, Atomoxetine Hydrochloride] | 4.4 | not detected | not detected | not detected | not detected | not detected | not detected | – | – | – | – | – | – | – | –
CNCCC(Oc1ccccc1C)c1ccccc1 (stereo not shown) [Sample 7, Atomoxetine Hydrochloride] | 2.4 | 0.633% HPLC A % | 0.0482% HPLC A % | 0.689% HPLC A % | not detected | 0.014% HPLC A % | 0.018% HPLC A % | – | – | – | – | – | – | – | –
CNCCC(Oc1ccccc1C)c1ccccc1 (stereo not shown) [Sample 5, Atomoxetine Hydrochloride] | – | – | – | – | – | – | – | – | – | – | – | – | – | – | pH (2% in H2O) [1]: 2.4; Impurity (a) [4, 9]: 0.31%; Impurity (b) [4, 9]: 0.04%; Impurity (c) [4, 9]: 0.12%; Impurity (a) ([4]; Before drying): not detected; Impurity (b) ([4]; Before drying): not detected; Impurity (c) ([4]; Before drying): not detected
CNCCC(Oc1ccccc1C)c1ccccc1 (single isomer, unassigned) [Sample 3, Atomoxetine Hydrochloride] | – | – | – | – | – | – | – | 6.0 | not detected | not detected | not detected | not detected | not detected | not detected | –
CNCCC(Oc1ccccc1C)c1ccccc1 (stereo not shown) [Sample 11, Atomoxetine Hydrochloride] | – | – | – | – | – | – | – | – | – | – | – | – | – | – | Impurity (a) (HPLC A %) ([5]; 1 month): 0.02 HPLC A %; Impurity (b) (HPLC A %) ([5]; 1 month): 0.006 HPLC A %; Impurity (c) (HPLC A %) ([5]; 1 month): not detected; Impurity (a) (HPLC A %) ([5]; 2 months): 0.02 HPLC A %; Impurity (b) (HPLC A %) ([5]; 2 months): 0.007 HPLC A %; Impurity (c) (HPLC A %) ([5]; 2 months): not detected; Impurity (a) (HPLC A %) ([5]; 3 months): 0.02 HPLC A %; Impurity (b) (HPLC A %) ([5]; 3 months): 0.003 HPLC A %; Impurity (c) (HPLC A %) ([5]; 3 months): not detected; Impurity (a) (HPLC A %) ([5]; 6 month): 0.01 HPLC A %; Impurity (b) (HPLC A %) ([5]; 6 month): not detected; Impurity (c) (HPLC A %) ([5]; 6 month): not detected; Impurity (a) (HPLC A %) ([5]; Time zero): 0.01 HPLC A %; Impurity (b) (HPLC A %) ([5]; Time zero): not detected; Impurity (c) (HPLC A %) ([5]; Time zero): not detected
CNCCC(Oc1ccccc1C)c1ccccc1 (stereo not shown) [Sample 6, Atomoxetine Hydrochloride] | – | – | – | – | – | – | – | – | – | – | – | – | – | – | pH (2% in H2O) [1]: 2.4
CNCC[C@@H](Oc1ccccc1C)c1ccccc1 [Atomoxetine Hydrochloride, (R)(−)-n-methyl-3-(2-methylphenoxy)-3-phenylpropylamine] | – | – | – | – | – | – | – | – | – | – | – | – | – | – | pH ([1]; Example 1, wet solids of two separate preparations, 2 g in 100 ml water): 2.39 and 2.40; pH ([1]; Example 2, after second water slurry and wash, wet, 2 g in 100 ml water): 5.9; pH ([1]; Example 3, after acetone washing and drying, about 2 percent w/V in water): 4.6; pH [6]: 4.4
CNCCC(Oc1ccccc1C)c1ccccc1 (stereo not shown) [Sample 10, Atomoxetine Hydrochloride] | 6.1 | not detected | not detected | not detected | not detected | not detected | not detected | – | – | – | – | – | – | – | –
CNCCC(Oc1ccccc1C)c1ccccc1 (stereo not shown) [Sample 12, Atomoxetine Hydrochloride] | – | – | – | – | – | – | – | – | – | – | – | – | – | – | aqueous pH test result [1, 10]: 6.1; aqueous pH test result ([1]; after contact with HCl gas flow): 2.8; Impurity (a) [7, 11]: 0.10% HPLC A %; Impurity (b) [7, 11]: 0.032% HPLC A %; Impurity (c) [7, 11]: 1.54% HPLC A %; Impurity (a) [7, 10]: not detected; Impurity (b) [7, 10]: not detected; Impurity (c) [7, 10]: not detected
CNCCC(Oc1ccccc1C)c1ccccc1 (single isomer, unassigned) [Sample 2, Atomoxetine Hydrochloride] | – | – | – | – | – | – | – | 5.8 | not detected | not detected | not detected | not detected | not detected | not detected | –
CNCCC(Oc1ccccc1C)c1ccccc1 (single isomer, unassigned) [Sample 4, Atomoxetine Hydrochloride] | – | – | – | – | – | – | – | 5.9 | not detected | not detected | not detected | not detected | not detected | not detected | –
